From patent publication US10550111B2, “Pyrimidine urea compound containing isoxazolines and use thereof” (SHENYANG SINOCHEM AGROCHEMICALS R&D CO., LTD, priority 2014, dated 2020)

Assays:
Type in all cases: in vivo
[1] = test system: Echinochloa crus-galli (L.) Beauv.; test: Bioassay of herbicidal activity in greenhouse (further screening)
Procedure, shortened: (§1)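 Pre- and post-emergence greenhouse test. Track sprayer, 500 L/hm^2, 1.95 kg/cm^2; EC formulation. Post-em at 2–3 leaves (grass), 2–4 leaves (broad-leaf). Readout: visual % inhibition.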

[2] = test system: Setaria glauca (L.) Beauv.; test: as above
Procedure, shortened: as §1

[3] = test system: Abutilon theophrasti Medic.; test: as above
Procedure, shortened: as §1

Zinnia elegans Jacq. = test: as above
Procedure, shortened: as §1

[4] = test system: broad-leaf weeds and grass weeds; test: General screening of herbicidal activity in greenhouse; settings: 1000 g a.i./hm^2;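 note: 0 means no visible effect and 100 means all weeds dead or not emerged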
Procedure, shortened: as §1

With C#CCOC(=O)C1(C)CC(c2cc(-n3c(=O)cc(C(F)(F)F)n(C)c3=O)ccc2Cl)=NO1 (stereo not shown) [Compound 290] the “Growth inhibition rate, Post-emergence treatment, Echinochloa crus-galli (L.) Beauv.” value ([1]; dose 37.5 g a.i./hm^2) was 25%, the “Growth inhibition rate, Post-emergence treatment, Echinochloa crus-galli (L.) Beauv.” value ([1]; dose 150 g a.i./hm^2) was 65% and the “Growth inhibition rate, Post-emergence treatment, Echinochloa crus-galli (L.) Beauv.” value ([1]; dose 600 g a.i./hm^2) was 70%. The “Growth inhibition rate, Pre-emergence treatment, Echinochloa crus-galli (L.) Beauv.” value ([1]; dose 37.5 g a.i./hm^2) was 0%, the “Growth inhibition rate, Pre-emergence treatment, Echinochloa crus-galli (L.) Beauv.” value ([1]; dose 150 g a.i./hm^2) was 0% and the “Growth inhibition rate, Pre-emergence treatment, Echinochloa crus-galli (L.) Beauv.” value ([1]; dose 600 g a.i./hm^2) was 20%. For the same molecule, the “Growth inhibition rate, Post-emergence treatment, Setaria glauca (L.) Beauv.” value ([2]; dose 37.5 g a.i./hm^2) was 40%, the “Growth inhibition rate, Post-emergence treatment, Setaria glauca (L.) Beauv.” value ([2]; dose 150 g a.i./hm^2) was 75% and the “Growth inhibition rate, Post-emergence treatment, Setaria glauca (L.) Beauv.” value ([2]; dose 600 g a.i./hm^2) was 85%. The “Growth inhibition rate, Pre-emergence treatment, Setaria glauca (L.) Beauv.” value ([2]; dose 37.5 g a.i./hm^2) was 0%, the “Growth inhibition rate, Pre-emergence treatment, Setaria glauca (L.) Beauv.” value ([2]; dose 150 g a.i./hm^2) was 10% and the “Growth inhibition rate, Pre-emergence treatment, Setaria glauca (L.) Beauv.” value ([2]; dose 600 g a.i./hm^2) was 25%. For the same molecule, the “Growth inhibition rate, Post-emergence treatment, Abutilon theophrasti Medic.” value ([3]; dose 37.5 g a.i./hm^2) was 85%, the “Growth inhibition rate, Post-emergence treatment, Abutilon theophrasti Medic.” value ([3]; dose 150 g a.i./hm^2) was 98% and the “Growth inhibition rate, Post-emergence treatment, Abutilon theophrasti Medic.” value ([3]; dose 600 g a.i./hm^2) was 100%. For the same molecule, the “Growth inhibition rate, Pre-emergence treatment, Abutilon theophrasti Medic.” value ([3]; dose 37.5 g a.i./hm^2) was 10%, the “Growth inhibition rate, Pre-emergence treatment, Abutilon theophrasti Medic.” value ([3]; dose 150 g a.i./hm^2) was 35% and the “Growth inhibition rate, Pre-emergence treatment, Abutilon theophrasti Medic.” value ([3]; dose 600 g a.i./hm^2) was 60%. The “Growth inhibition rate, Post-emergence treatment, Zinnia elegans Jacq.” value (Zinnia elegans Jacq.; dose 37.5 g a.i./hm^2) was 75%, the “Growth inhibition rate, Post-emergence treatment, Zinnia elegans Jacq.” value (Zinnia elegans Jacq.; dose 150 g a.i./hm^2) was 100% and the “Growth inhibition rate, Post-emergence treatment, Zinnia elegans Jacq.” value (Zinnia elegans Jacq.; dose 600 g a.i./hm^2) was 100%. The “Growth inhibition rate, Pre-emergence treatment, Zinnia elegans Jacq.” value (Zinnia elegans Jacq.; dose 37.5 g a.i./hm^2) was 0%, the “Growth inhibition rate, Pre-emergence treatment, Zinnia elegans Jacq.” value (Zinnia elegans Jacq.; dose 150 g a.i./hm^2) was 0% and the “Growth inhibition rate, Pre-emergence treatment, Zinnia elegans Jacq.” value (Zinnia elegans Jacq.; dose 600 g a.i./hm^2) was 20%. For the same molecule, the “pre-emergence and post-emergence herbicidal activity against broad-leaf weeds and grass weeds” value [4] was “good”.
With COC(=O)C1(C)CC(c2cc(-n3c(=O)cc(C(F)(F)F)n(C)c3=O)c(F)cc2Cl)=NO1 (stereo not shown) [Compound 5] the “Growth inhibition rate, Post-emergence treatment, Echinochloa crus-galli (L.) Beauv.” value ([1]; dose 7.5 g a.i./hm^2) was 45%, the “Growth inhibition rate, Post-emergence treatment, Echinochloa crus-galli (L.) Beauv.” value ([1]; dose 15 g a.i./hm^2) was 95% and the “Growth inhibition rate, Post-emergence treatment, Echinochloa crus-galli (L.) Beauv.” value ([1]; dose 30.0 g a.i./hm^2) was 100%. For the same molecule, the “Growth inhibition rate, Post-emergence treatment, Echinochloa crus-galli (L.) Beauv.” value ([1]; dose 60.0 g a.i./hm^2) was 100%, the “Growth inhibition rate, Post-emergence treatment, Echinochloa crus-galli (L.) Beauv.” value ([1]; dose 120.0 g a.i./hm^2) was 100% and the “Growth inhibition rate, Post-emergence treatment, Setaria glauca (L.) Beauv.” value ([2]; dose 7.5 g a.i./hm^2) was 60%. For the same molecule, the “Growth inhibition rate, Post-emergence treatment, Setaria glauca (L.) Beauv.” value ([2]; dose 15 g a.i./hm^2) was 65%, the “Growth inhibition rate, Post-emergence treatment, Setaria glauca (L.) Beauv.” value ([2]; dose 30.0 g a.i./hm^2) was 100% and the “Growth inhibition rate, Post-emergence treatment, Setaria glauca (L.) Beauv.” value ([2]; dose 60.0 g a.i./hm^2) was 100%. For the same molecule, the “Growth inhibition rate, Post-emergence treatment, Setaria glauca (L.) Beauv.” value ([2]; dose 120.0 g a.i./hm^2) was 100%, the “Growth inhibition rate, Post-emergence treatment, Abutilon theophrasti Medic.” value ([3]; dose 7.5 g a.i./hm^2) was 100% and the “Growth inhibition rate, Post-emergence treatment, Abutilon theophrasti Medic.” value ([3]; dose 15 g a.i./hm^2) was 100%. For the same molecule, the “Growth inhibition rate, Post-emergence treatment, Abutilon theophrasti Medic.” value ([3]; dose 30.0 g a.i./hm^2) was 100%, the “Growth inhibition rate, Post-emergence treatment, Abutilon theophrasti Medic.” value ([3]; dose 60.0 g a.i./hm^2) was 100% and the “Growth inhibition rate, Post-emergence treatment, Abutilon theophrasti Medic.” value ([3]; dose 120.0 g a.i./hm^2) was 100%. For the same molecule, the “Growth inhibition rate, Post-emergence treatment, Zinnia elegans Jacq.” value (Zinnia elegans Jacq.; dose 7.5 g a.i./hm^2) was 40%, the “Growth inhibition rate, Post-emergence treatment, Zinnia elegans Jacq.” value (Zinnia elegans Jacq.; dose 15 g a.i./hm^2) was 45% and the “Growth inhibition rate, Post-emergence treatment, Zinnia elegans Jacq.” value (Zinnia elegans Jacq.; dose 30.0 g a.i./hm^2) was 98%. For the same molecule, the “Growth inhibition rate, Post-emergence treatment, Zinnia elegans Jacq.” value (Zinnia elegans Jacq.; dose 60.0 g a.i./hm^2) was 100%, the “Growth inhibition rate, Post-emergence treatment, Zinnia elegans Jacq.” value (Zinnia elegans Jacq.; dose 120.0 g a.i./hm^2) was 100% and the “pre-emergence and post-emergence herbicidal activity against broad-leaf weeds and grass weeds” value [4] was “good”.
